According to patent publication US20080275224A1, “Cyanoborate, Fluoroalkylphosphate, Fluoroalkylborate or Imide Dyes” (priority 2003, published 2008):
Values belong to the molecule of their own block, whether it stands above or below them.

Legend:
[1] = Solubility in organic solvents (statements in the description)
physchem = conditions: water
[2] = Solubility investigations of the dyes prepared in accordance with Examples 31 to 34
[3] = acetonitrile, organic solvent or mixture, Solubility, CH3CN
[4] = dichloromethane, organic solvent or mixture, Solubility, CH2Cl2
[5] = ethanol, organic solvent or mixture, Solubility

Solubility in benzene [1]: soluble
SMILES: CCN(CC)c1ccc2nc3ccc(/N=N/c4ccc(N(C)C)cc4)cc3[n+](-c3ccccc3)c2c1 [Janus Green [(CF3SO2)2N]^−]

Solubility in benzene ([1]; listed as Nile Blue FAP): soluble
Solubility in dimethyl carbonate ([1]; listed as Nile Blue FAP): readily or very readily soluble
SMILES: CC[N+](CC)=c1ccc2nc3c(cc(N)c4ccccc43)oc-2c1 [Nile Blue [(C2F5)3PF3]^−] [Nile Blue as tris(pentafluoroethyl)trifluorophosphate]

solubility (physchem): < 10 µg/mL
SMILES: Cc1cc2nc3cc(C)c(N)cc3[n+](-c3ccccc3)c2cc1N [Safranine O [B(CF3)4]^−, safranine O as tetrakis(trifluoromethyl)borate]

Solubility in benzene [1]: insoluble
Solubility in dimethyl carbonate ([1]; listed as Nile Blue with hydrogensulfate as anion): insoluble
SMILES: CC[N+](CC)=c1ccc2nc3c(cc(N)c4ccccc43)oc-2c1 [Nile Blue Hydrogensulfate anion, Nile Blue hydrogensulfate, reference compound]

Solubility in benzene ([1]; listed as Nile Blue Im): soluble
Solubility in dimethyl carbonate ([1]; listed as Nile Blue Im): readily or very readily soluble
SMILES: CC[N+](CC)=c1ccc2nc3c(cc(N)c4ccccc43)oc-2c1 [Nile Blue [(CF3SO2)2N]^−]

Solubility in benzene ([1]; listed as Nile Blue CAB): soluble
Solubility in dimethyl carbonate ([1]; listed as Nile Blue CAB): readily or very readily soluble
SMILES: CC[N+](CC)=c1ccc2nc3c(cc(N)c4ccccc43)oc-2c1 [Nile Blue [B(CN)4]^−, Nile Blue as tetracyanoborate]

solubility ([2]; Pentane): insoluble
solubility [2, 3]: > 2000 µg/mL
solubility [2, 4]: > 5000 µg/mL
solubility [2, 5]: > 3000 µg/mL
solubility ([2]; water, Solubility, H2O): < 10 µg/mL
Solubility in benzene ([1]; listed as Nile Blue FAB): soluble
Solubility in dimethyl carbonate ([1]; listed as Nile Blue FAB): readily or very readily soluble
SMILES: CC[N+](CC)=c1ccc2nc3c(cc(N)c4ccccc43)oc-2c1 [Nile Blue [B(CF3)4]^−, Nile Blue as tetrakis(trifluoromethyl)borate]

Solubility in benzene [1]: insoluble
SMILES: CCN(CC)c1ccc2nc3ccc(N=Nc4ccc(N(C)C)cc4)cc3[n+](-c3ccccc3)c2c1.[Cl-] [Janus Green Cl^−, Janus Green, reference compound]

solubility ([2]; H2O): insoluble
solubility ([2]; Pentane): insoluble
solubility [2, 3]: > 5000 µg/mL
solubility [2, 4]: > 10000 µg/mL
solubility [2, 5]: > 10000 µg/mL
SMILES: CN(C)c1ccc(C(=C2C=CC(=[N+](C)C)C=C2)c2ccc(N(C)C)cc2)cc1 [Crystal Violet [B(CF3)4]^−, Crystal Violet as tetrakis(trifluoromethyl)borate]
